Assays:
cognitive function = conditions: cited from earlier work; for cognitive function in vivo: see US 2011/0224303
[1] = system: hippocampus of 5XFAD mice; assay: RNA sequencing of hippocampus of 5XFAD mice after chronic CI-994 treatment; type: in vivo, mouse; conditions: 5XFAD mice hippocampus
Source text: To test if high-throughput genome-wide RNA sequencing can be readily used a biomarker for HDAC inhibitor-mediated treatment of cognitive decline associate with AD, a mouse model of familial AD, the SXFAD mice were used. These mice harbor point mutations in the AD-related pathogenic presenilin and amyloid precursor protein pathways, and recapitulate the majority of human AD pathologies, including amyloid-β deposition, neurodegeneration, and cognitive impairments. […] After completion of treatment, mice were sacrificed, their brain regions dissected, and total RNA extracted of the hippocampus, a brain region important for memory formation and storage. The RNA was quality controlled using Agilent's bioanalyzer 5' and 3'-end labeled and sequenced on an Illumina HiSeq sequencer with 200 million reads per sample. Sequence reads were aligned to the mouse genome, and quality-filtered. Differential analysis was then conducted using Cuffdiff with IIlumina iGenome mm9 UCSC gene annotation.

[2] = system: peripheral blood mononuclear cells of 5XFAD mice; assay: RNA sequencing of peripheral blood mononuclear cells of 5XFAD mice after CI-994 treatment; type: in vivo, mouse; conditions: PBMC, CI-994 1 mg/kg i.p. every other day 1 month, FIG. 2
Description: After completion of treatment, blood was drawn and peripheral blood mononuclear cells were rapidly isolated. The cells were washed with PBS and total RNA was extracted using the RNeasy kit (Qiagen). RNA integrity was analyzed using the Bioanalyzer 2100 (Agilent) and the libraries were prepared using the Ovation Ultralow Library System kit (NuGen). Libraries were then pooled in equal amounts and high-throughput sequencing was performed on an Illumina HiSeq 2000 platform. Two individual biological replicates per condition were sequenced.

[3] = CI-994 1 mg/kg i.p. daily 1 month

Nc1ccc(C(=O)Nc2ccccc2N)cc1 [dinaline]
cognitive function in vivo (cognitive function): improve cognitive function in vivo

CC(=O)Nc1ccc(C(=O)Nc2ccccc2N)cc1 [CI-994, 4-(acetylamino)-N-(2-aminophenyl)benzamide]
1700026L06Rik expression level [1, 3]: 0.5624
4833427G06Rik expression level [1, 3]: 1.156
Abhd2 expression level [1, 3]: 16.6349
Acaa2 expression level [1, 3]: 15.6611
Acacb expression level [1, 3]: 0.6669
Acss3 expression level [1, 3]: 0.8644
Adcy1 expression level [1, 3]: 121.693
Aebp1 expression level [1, 3]: 4.334
Aldh1a1 expression level [1, 3]: 16.8375
Aldh2 expression level [1, 3]: 35.3667
Als2cr4 expression level [1, 3]: 14.5748
Angptl2 expression level [1, 3]: 1.519
Antxr1 expression level [1, 3]: 4.106
Apln expression level [1, 3]: 9.121
Arc expression level [1, 3]: 77.622
Arhgap28 expression level [1, 3]: 0.18
Arsg expression level [1, 3]: 13.3427
Atf4 expression level [1, 3]: 63.7327
Atp2b3 expression level [1, 3]: 41.3436
Atp7a expression level [1, 3]: 1.987
Atp11c expression level [1, 3]: 3.649
B230217C12Rik expression level [1, 3]: 41.8821
BC049635 expression level [1, 3]: 0.514
Baiap2l1 expression level [1, 3]: 0.6224
Bmp6 expression level [1, 3]: 5.713
Bmp7 expression level [1, 3]: 2.931
Brwd3 expression level [1, 3]: 1.786
Bst2 expression level [1, 3]: 4.307
Btbd3 expression level [1, 3]: 34.9585
C1ql2 expression level [1, 3]: 39.6924
C1qtnf5 expression level [1, 3]: 15.0312
C230081A13Rik expression level [1, 3]: 8.241
C530008M17Rik expression level [1, 3]: 17.1167
Cabp7 expression level [1, 3]: 205.981
Car14 expression level [1, 3]: 6.584
Ccdc141 expression level [1, 3]: 2.317
Ccnd1 expression level [1, 3]: 15.4148
Cdh3 expression level [1, 3]: 0.3686
Cdr2 expression level [1, 3]: 5.994
Cndp1 expression level [1, 3]: 0.2514
Cnst expression level [1, 3]: 10.5531
Col4a3 expression level [1, 3]: 0.1459
Col4a4 expression level [1, 3]: 0.1702
Col17a1 expression level [1, 3]: 0.02351
Coro2b expression level [1, 3]: 59.6533
Cpn1 expression level [1, 3]: 0.2381
Cpne7 expression level [1, 3]: 72.8282
Cpt1b expression level [1, 3]: 0
Crtac1 expression level [1, 3]: 33.2962
Crtap expression level [1, 3]: 2.382
Ctnnal1 expression level [1, 3]: 4.538
Cul4b expression level [1, 3]: 14.4206
Cxcl14 expression level [1, 3]: 62.1186
Dab2 expression level [1, 3]: 2.765
Dclk3 expression level [1, 3]: 6.883
Dcn expression level [1, 3]: 18.2706
Dgkh expression level [1, 3]: 8.277
Dio2 expression level [1, 3]: 13.4167
Dmrt3 expression level [1, 3]: 0.6692
Dnahc11 expression level [1, 3]: 0.2181
Doc2b expression level [1, 3]: 33.8561
Dpep1 expression level [1, 3]: 0.1399
Dsg2 expression level [1, 3]: 0.9993
Dsp expression level [1, 3]: 8.258
Ephx1 expression level [1, 3]: 17.8668
Eps8l2 expression level [1, 3]: 1.379
F11r expression level [1, 3]: 3.438
Fads2 expression level [1, 3]: 8.701
Fam38a expression level [1, 3]: 0.6613
Fam163b expression level [1, 3]: 67.8893
Fras1 expression level [1, 3]: 0.749
Fst expression level [1, 3]: 1.755
Fxyd1 expression level [1, 3]: 37.5709
Fzd4 expression level [1, 3]: 3.613
Gabra2 expression level [1, 3]: 45.2624
Galm expression level [1, 3]: 1.687
Gas6 expression level [1, 3]: 39.2248
Glb1l2 expression level [1, 3]: 0.5483
Glul expression level [1, 3]: 251.125
Gm221 expression level [1, 3]: 0.499
Gm853 expression level [1, 3]: 0
Gm11744 expression level [1, 3]: 2.594
Gng7 expression level [1, 3]: 64.066
Gprc5c expression level [1, 3]: 1.254
Grm2 expression level [1, 3]: 13.2878
Gyltl1b expression level [1, 3]: 0.192
Hapln1 expression level [1, 3]: 10.6547
Hbb-b2 expression level [1, 3]: 3.714
Hemk1 expression level [1, 3]: 4.074
Homer2 expression level [1, 3]: 14.9404
Hsd11b1 expression level [1, 3]: 28.1849
Hspg2 expression level [1, 3]: 0.7372
Ifi27l1 expression level [1, 3]: 36.0763
Igfbp5 expression level [1, 3]: 38.2003
Igfbp7 expression level [1, 3]: 18.1462
Igfn1 expression level [1, 3]: 0.1271
Iqgap1 expression level [1, 3]: 3.038
Isoc1 expression level [1, 3]: 14.1426
Kcnj2 expression level [1, 3]: 3.205
Kcnj10 expression level [1, 3]: 64.1636
Kif9 expression level [1, 3]: 1.8759
Kit expression level [1, 3]: 18.7665
Klhdc7a expression level [1, 3]: 4.613
Lama5 expression level [1, 3]: 0.8869
Lamp2 expression level [1, 3]: 40.9038
Leprel4 expression level [1, 3]: 7.907
Lingo1 expression level [1, 3]: 88.754
Llgl2 expression level [1, 3]: 0.4373
Lmx1a expression level [1, 3]: 0.5034
Loxl1 expression level [1, 3]: 1.486
Loxl2 expression level [1, 3]: 0.1912
Lrp5 expression level [1, 3]: 2.432
Lrp10 expression level [1, 3]: 14.6733
Ltc4s expression level [1, 3]: 7.102
Lypd1 expression level [1, 3]: 47.9728
Mccc1 expression level [1, 3]: 5.41
Mfsd7c expression level [1, 3]: 0.65
Mmp15 expression level [1, 3]: 6.699
Mpp7 expression level [1, 3]: 1.162
Myoc expression level [1, 3]: 11.9051
Myof expression level [1, 3]: 0.8629
Ndst4 expression level [1, 3]: 5.129
Nek11 expression level [1, 3]: 0.5801
Nid2 expression level [1, 3]: 1.141
Nos1 expression level [1, 3]: 8.7895
Npas4 expression level [1, 3]: 3.8842
Npr1 expression level [1, 3]: 1.7036
Nqo1 expression level [1, 3]: 3.794
Nt5dc1 expression level [1, 3]: 1.205
Oca2 expression level [1, 3]: 0.467
Odz4 expression level [1, 3]: 7.194
Ooep expression level [1, 3]: 0.07202
Pcp4l1 expression level [1, 3]: 50.8954
Pgcp expression level [1, 3]: 8.02
Phactr2 expression level [1, 3]: 6.295
Pla2g4e expression level [1, 3]: 1.85
Plek2 expression level [1, 3]: 0.4301
Plekha2 expression level [1, 3]: 12.177
Pltp expression level [1, 3]: 36.9312
Plxnb2 expression level [1, 3]: 10.316
Polr1a expression level [1, 3]: 5.4566
Pon1 expression level [1, 3]: 0.12
Ppfibp2 expression level [1, 3]: 2.53
Ppp1r1a expression level [1, 3]: 67.7123
Ppp1r1b expression level [1, 3]: 37.5707
Prelp expression level [1, 3]: 9.53
Prox1 expression level [1, 3]: 14.3616
Prps2 expression level [1, 3]: 12.0363
Ptpn14 expression level [1, 3]: 1.315
Rab20 expression level [1, 3]: 1.273
Rai14 expression level [1, 3]: 1.053
Rbp3 expression level [1, 3]: 0.5204
Rd3 expression level [1, 3]: 0.6656
Ripk4 expression level [1, 3]: 0.1565
Rrh expression level [1, 3]: 0.05235
Rsph4a expression level [1, 3]: 2.9407
Scg5 expression level [1, 3]: 219.826
Scn4b expression level [1, 3]: 8.643
Scube1 expression level [1, 3]: 4.586
Scube3 expression level [1, 3]: 0.6281
Sdk1 expression level [1, 3]: 0.6821
Serpinb1b expression level [1, 3]: 0.9169
Sfrp5 expression level [1, 3]: 0.5384
Slc4a10 expression level [1, 3]: 46.0086
Slc5a3 expression level [1, 3]: 5.289
Slc12a2 expression level [1, 3]: 20.5749
Slc12a4 expression level [1, 3]: 5.898
Slc12a7 expression level [1, 3]: 1.124
Slc16a2 expression level [1, 3]: 14.2113
Slc16a4 expression level [1, 3]: 2.157
Slc16a9 expression level [1, 3]: 1.385
Slc16a12 expression level [1, 3]: 1.226
Slc22a6 expression level [1, 3]: 0.7873
Slc23a2 expression level [1, 3]: 27.4105
Slc25a39 expression level [1, 3]: 30.7081
Slc29a4 expression level [1, 3]: 11.9409
Slc37a2 expression level [1, 3]: 0.8387
Slc39a4 expression level [1, 3]: 1.073
Slco1c1 expression level [1, 3]: 20.1851
Smpdl3a expression level [1, 3]: 19.7502
Sod3 expression level [1, 3]: 6.1
Spag16 expression level [1, 3]: 0.4608
Spint2 expression level [1, 3]: 15.9511
Sptlc3 expression level [1, 3]: 0.2346
Ssfa2 expression level [1, 3]: 10.0587
Stk39 expression level [1, 3]: 28.2125
Stra6 expression level [1, 3]: 4.817
Tbc1d1 expression level [1, 3]: 4.993
Tbc1d2 expression level [1, 3]: 0.8273
Tbc1d9 expression level [1, 3]: 19.741
Tbcel expression level [1, 3]: 17.0147
Tcn2 expression level [1, 3]: 9.139
Tead1 expression level [1, 3]: 4.075
Tgfbi expression level [1, 3]: 1.202
Tgfbr3 expression level [1, 3]: 3.88
Timp2 expression level [1, 3]: 84.9023
Tinagl1 expression level [1, 3]: 2.32
Tjp3 expression level [1, 3]: 0.9513
Tlr2 expression level [1, 3]: 1.035
Tmem27 expression level [1, 3]: 0.3657
Tmem98 expression level [1, 3]: 10.1715
Tmem108 expression level [1, 3]: 8.4143
Tns1 expression level [1, 3]: 3.868
Tspan33 expression level [1, 3]: 15.0442
Ttc21a expression level [1, 3]: 1.107
Vamp8 expression level [1, 3]: 13.404
Vcam1 expression level [1, 3]: 10.2949
Vcp expression level [1, 3]: 1.545
Wdfy1 expression level [1, 3]: 7.05
Wdr16 expression level [1, 3]: 1.6294
Wfs1 expression level [1, 3]: 43.1125
Zfp185 expression level [1, 3]: 1.3415
Zfp605 expression level [1, 3]: 4.398
rescue of the downregulated genes [1, 3]: 100%
rescue of the differentially expressed genes to levels comparable to control mice ([1]; CI-994 1 mg/kg i.p. daily 1 month, FIG. 1): rescued to near completion
number of genes rescued by CI-994 treatment ([1]; FIG. 1 heatmap, significance level p<0.05): 239 genes
number of differentially expressed genes (wild type vs 5XFAD) rescued to control levels [2]: 69 genes
AD-related cognitive impairments (cognitive function; earlier finding stated for CI-994): reduce AD-related cognitive impairments
cognitive function in vivo (cognitive function): improve cognitive function in vivo

Reference: patent US20150219673A1, “THE USE OF GENE EXPRESSION PROFILING AS A BIOMARKER FOR ASSESSING THE EFFICACY OF HDAC INHIBITOR TREATMENT IN NEURODEGENERATIVE CONDITIONS” (Massachusetts Institute of Technology, priority 2012, published 2015)
